Results from patent publication EP0927045B1, “TUMOR HOMING MOLECULES, […] THEREFROM, AND METHODS OF USING SAME” (The Burnham Institute, priority 1996, dated 1998).
Like-named read-outs stand apart in the source and are kept apart here. Where no end group is shown, it is not given here.

What was measured:
[1] = Acute toxicity in mice bearing extremely large tumors; format: in vivo; conditions: 200 µg/mouse; tumors about 25% of body weight
Method: Acute toxicity studies also were performed.

[2] = system: MDA-MB-435 breast carcinoma; assay: Tumor therapy with doxorubicin/peptide conjugates in tumor bearing mice; format: in vivo, Balb c nu/nu mice; conditions: for effect on tumor growth: relative to treatment with the vehicle, alone
Method: Female 2-month old Balb c nu/nu mice (Harlan Sprague Dawley; San Diego CA) were used for these studies and were cared for according to the Burnham Institute animal facility guidelines. […] Tumors were allowed to grow to a size of about 1 cm^3 (about 5% of the mouse's body weight) before starting the treatment experiments, except for the toxicity experiments as discussed below.
Weekly doxorubicin/peptide conjugate or control treatments (5 µg/mouse/week of doxorubicin-equivalent) were administered intravenously. In some experiments, as indicated, a dose of 30 µg/mouse was administered every 3 weeks. Treatment with doxorubicin, alone, is referred to as "dox control" and treatment with doxorubicin conjugated to the non-tumor homing control peptide, […] As an additional control, in some experiments the tumor homing peptide was mixed with doxorubicin, without linking, and the mixture was administered to tumor bearing mice. Such treatment produced results that were not statistically different from those obtained with the above described dox controls.
Mice were anesthetized with a tribromoethanol-based anesthetic mixture (AVERTIN; Papaioannou and Fox, Lab. Anim. 43:189-192 (1993)) before each treatment. Anesthetization facilitated the tail vein injections (final volume, 200 µl) and allowed precise serial three dimensional tumor size measurements. Tumor volume calculations were based on the equation for the volume of an ovaloid: V=4/3(nabc), where a, b, and c are 1/2 of the measured diameters in each of the three dimensions.

[3] = system: MDA-MB-435 human breast carcinoma cells; assay: In vitro characterization of cytotoxicity, crystal violet staining; format: cell-based
Method: (§1) (SEQ ID NO: 1) conjugate, or the doxorubicin/[sequence] (SEQ ID NO: 19; control) conjugate (0.1 to 10 µg/well of doxorubicin-equivalent) for either 30 min or overnight. Following incubation, the agents were removed by extensive washing with PBS, then fresh medium added and incubation was continued. The number of surviving cells was determined at 24 hours with crystal violet staining (see Koivunen et al., supra, 1994).

[4] = system: Human 435 breast carcinoma; assay: In vivo targeting of phage to a tumor, phage in organs quantitated; design: species or system nude mice
Method: When the tumors attained a diameter of about 1 cm, phage expressing a specific RGD-containing peptide were administered to the tumor bearing mouse. Similar results TABLE 1
1 x 10^9 phage expressing the RGD-containing peptide, […] (SEQ ID NO: 1; see, Koivunen et al., supra, 1995) or control (insertless) phage were injected intravenously (iv) into the mice and allowed to circulate for 4 min. The mice then were snap frozen or perfused through the heart while under anesthesia, and various organs, including tumor, brain and kidney, were removed and the phage present in the organs was quantitated (see U.S. Patent No. 5,622,699; Pasqualini and Ruoslahti, supra, 1996).

human Kaposi's sarcoma = assay: In vivo targeting of phage to a tumor; design: species or system mice; conditions: human Kaposi's sarcoma xenograft
Method: Since the αvβ3 integrin is expressed by endothelial cells in angiogenic vasculature, experiments were performed to determine whether tumor vasculature that is undergoing angiogenesis can be targeted in vivo using methods as disclosed herein. Phage expressing the peptide, […] (SEQ ID NO: 1; see, Koivunen et al., supra, 1995), which is known to bind to the αvβ3 integrin, were injected into mice bearing tumors formed from human breast carcinoma cells, mouse melanoma cells or human Kaposi's sarcoma cells (see Example IV). The […] […] For example, in mice bearing tumors formed by implantation of human breast carcinoma cells, a twenty-to eighty-fold greater number of the […] (SEQ ID NO: 1) phage, as compared to unselected control phage, accumulated in the tumor.

[5] = Acute toxicity in mice bearing extremely large tumors; format: in vivo; conditions: 200 µg/mouse; tumors about 25% of body weight; remark: listed apart in the source
Method: Acute toxicity studies also were performed. […] (SEQ ID NO: 1) conjugate. All of the mice treated with the doxorubicin/[…]

breast tumor = assay: Viability of tumor cells plated from tumors of treated mice; format: in vivo; conditions: 30 pg equivalent iv, tumors removed five days after treatment, cell numbers 24 hours and 7 days after plating
Excerpt: In addition, the viability of tumor cells obtained from tumors of mice treated with a tumor homing peptide/doxorubicin conjugate was compared to that of tumors from mice treated with free doxorubicin. In these experiments, breast tumor bearing mice were size matched with regard to the tumors, then treated intravenously with 30 pg equivalent of doxorubicin/[…] (SEQ ID NO: 1) or of free doxorubicin. Five days after treatment, the mice were euthanized and the tumors were removed. The tumor pairs were weighed and ground and the cell suspensions were plated (2 g tumor tissue per 150 mm plate).
Cell numbers were determined at 24 hours and 7 days after plating. Viability of tumor cells from the tumors of mice receiving the doxorubicin/[…] (SEQ ID NO: 1) conjugate was about 3 fold less than cells from tumors of mice treated with the free doxorubicin.

[6] = system: MDA-MB-435 human breast carcinoma cells; format: cell-based; conditions: for cell killing: agents not removed after 30 min, after 24 hr
Method: as §1

[7] = exposure 30 min, then agents removed, 0.1 to 10 µg/well doxorubicin-equivalent, surviving cells at 24 hours
[8] = 5 µg/mouse/week doxorubicin-equivalent
[9] = 5 µg/mouse/week doxorubicin-equivalent iv
[10] = 5 µg/mouse/week doxorubicin-equivalent iv, at necropsy, t test p<0.0001

With `COc1cccc2c1C(=O)c1c(O)c3c(c(O)c1C2=O)C[C@@](O)(C(=O)CO)C[C@@H]3O[C@H]1C[C@H](N)[C@H](O)[C@H](C)O1` [doxorubicin] the “time to death after treatment” value [1] was at most 48 h, the “gross examination: skin ulceration and tumor necrosis” value (“gross examination” below) ([2]; 5 µg/mouse/week doxorubicin equivalent) was “no such signs were observed” and the “effect on tumor growth” value [2] was “essentially no effect on tumor growth”. For the same molecule, the cell killing ([3]; agents not removed after 30 min, after 24 hr) was “killed” and the cell death [3, 7] was “cell death was present only in the cultures treated with the doxorubicin/CDCRGDCFC”.

For CLSGSLSC, the “selective homing of phage to the tumor” value [4] was “also homed” and the “selective homing of phage to the tumor” value (human Kaposi's sarcoma) was “also homed”.

For “doxorubicin/CDCRGDCFC: CDCRGDCFC (SEQ ID NO: 1) coupled to doxorubicin using EDC and NHS (cysteine pairing not given here; also: doxorubicin coupled via EDC/NHS)”, the “gross examination” value [2, 8] was “marked skin ulceration and tumor necrosis”, the “survival compared with dox control and conjugate control” value [2, 9] was “survived beyond the time when the dox control and conjugate control mice had died” and the “tumor size compared with controls” value [2, 9] was “significantly smaller tumors”. For the same molecule, the “pulmonary metastasis compared with dox control” value [2, 10] was “a lower incidence of pulmonary metastasis and fewer metastatic lesions”, the “spread to regional lymph nodes compared with dox control” value [2, 10] was “less spread to regional lymph nodes” and the “time alive after the dox control and conjugate control mice had died” value ([2]; dose escalation: 30 µg/mouse every three weeks for three cycles) was “more than 6 months”. For the same molecule, the “histopathological analysis of tumor vasculature compared with dox control” value ([2]; mouse, in vivo) was “pronounced destruction of the vasculature”, the survival after treatment [5] was “survived for longer than one week” and the “viability of tumor cells relative to cells from tumors of mice treated with free doxorubicin” value (breast tumor) was “about 3 fold less”. The cell killing [6] was “killed” and the cell death [6, 7] was “cell death was present”.

For “doxorubicin/GACVFSIAHECGA: doxorubicin conjugated to the non-tumor homing control peptide, GACVFSIAHECGA (SEQ ID NO: 19) (cysteine pairing not given here; also: doxorubicin conjugated) [reference compound]”, the “gross examination” value [2, 8] was “no such signs were observed”, the “treatment results compared with dox control” value [2, 9] was “not significantly different” and the “effect on tumor growth” value [2] was “essentially no effect on tumor growth”. The cell death [6] was “cell death was present only in the cultures treated with the doxorubicin/[…]” and the cell killing [6] was “killed”.
